The text below walks through data of ChEMBL document CHEMBL4627399, “Synthesis and Structure-Activity Relationships of 5'-Aryl-14-alkoxypyridomorphinans: Identification of a μ Opioid Receptor Agonist/δ Opioid Receptor Antagonist Ligand with Systemic Antinociceptive Activity and Diminished Opioid Side Effects” (J Med Chem, 2020).

Calls of active or inactive are those of the source. The rule behind the calls is not given here.

In one series the target is T1, Mu-type opioid receptor (Homo sapiens, UniProt P35372). In words: biochemical.
Conditions: not given
In turn, `Cc1cccc(-c2cnc3c(c2)C[C@@]2(OCCCc4ccccc4)[C@H]4Cc5ccc(O)c6c5[C@@]2(CCN4CC2CC2)[C@H]3O6)c1` came in with an EC50 of 20.6 nM.
Compound `Oc1ccc2c3c1O[C@H]1c4ncc(-c5cn[nH]c5)cc4C[C@@]4(OCCCc5ccccc5)[C@@H](C2)N(CC2CC2)CC[C@]314` returned an EC50 of 3.29 nM.
The same measure, in the same setting: the same measure for `Oc1ccc2c3c1O[C@H]1c4ncc(-c5ccncc5)cc4C[C@@]4(OCCCc5ccccc5)[C@@H](C2)N(CC2CC2)CC[C@]314`: 56.3 nM; for `Oc1ccc2c3c1O[C@H]1c4ncc(-c5ccccc5)cc4C[C@@]4(OCCCc5ccccc5)[C@@H](C2)N(CC2CC2)CC[C@]314`: 1.27 nM.
On the same count and under the same terms, the same measure for `Oc1ccc2c3c1O[C@H]1c4ncc(-c5ccccn5)cc4C[C@@]4(OCCCc5ccccc5)[C@@H](C2)N(CC2CC2)CC[C@]314`: 526 nM.
Turning to `Oc1ccc2c3c1O[C@H]1c4ncc(-c5cccnc5)cc4C[C@@]4(OCCCc5ccccc5)[C@@H](C2)N(CC2CC2)CC[C@]314`, the EC50 was > 3330 nM.

Tested on in another series: not listed separately
In words: Stability in human liver microsomes at 1 uM measured up to 60 mins by LC-MS/MS analysis. The conditions noted are these: 1 h. In kind it is ADME, Microsome.
As to `Cc1cccc(-c2cnc3c(c2)C[C@@]2(OCCCc4ccccc4)[C@H]4Cc5ccc(O)c6c5[C@@]2(CCN4CC2CC2)[C@H]3O6)c1`, the Stability result is on record as “Stable”.
As to `Oc1ccc2c3c1O[C@H]1c4ncc(-c5cn[nH]c5)cc4C[C@@]4(OCCCc5ccccc5)[C@@H](C2)N(CC2CC2)CC[C@]314`, the Stability result is recorded as “Stable”.
Take `Oc1ccc2c3c1O[C@H]1c4ncc(-c5ccncc5)cc4C[C@@]4(OCCCc5ccccc5)[C@@H](C2)N(CC2CC2)CC[C@]314`: the Stability result is “Stable”.
With `Oc1ccc2c3c1O[C@H]1c4ncc(-c5ccccc5)cc4C[C@@]4(OCCCc5ccccc5)[C@@H](C2)N(CC2CC2)CC[C@]314`, the Stability result is on record as “Stable”.
With `Oc1ccc2c3c1O[C@H]1c4ncc(-c5ccccn5)cc4C[C@@]4(OCCCc5ccccc5)[C@@H](C2)N(CC2CC2)CC[C@]314`, the Stability entry is on record as “Stable”.
Still for that read-out and setting: the entry for `Oc1ccc2c3c1O[C@H]1c4ncc(-c5cccnc5)cc4C[C@@]4(OCCCc5ccccc5)[C@@H](C2)N(CC2CC2)CC[C@]314` is “Stable”.

A further series addresses T2, Delta-type opioid receptor (Homo sapiens, UniProt P41143). In words: Displacement of [3H]-diprenorphine from human delta opioid receptor expressed in CHO cell membranes incubated for 1 hr by competition radioligand binding assay.
Conditions: not given
In the case of `Cc1cccc(-c2cnc3c(c2)C[C@@]2(OCCCc4ccccc4)[C@H]4Cc5ccc(O)c6c5[C@@]2(CCN4CC2CC2)[C@H]3O6)c1`, the Ki was 26.8 nM.
In turn, `Oc1ccc2c3c1O[C@H]1c4ncc(-c5cn[nH]c5)cc4C[C@@]4(OCCCc5ccccc5)[C@@H](C2)N(CC2CC2)CC[C@]314` came in with a Ki of 257 nM.
As for `Oc1ccc2c3c1O[C@H]1c4ncc(-c5ccncc5)cc4C[C@@]4(OCCCc5ccccc5)[C@@H](C2)N(CC2CC2)CC[C@]314`, the Ki came to 6.43 nM.
On the same count and under the same terms, the figure for `Oc1ccc2c3c1O[C@H]1c4ncc(-c5ccccc5)cc4C[C@@]4(OCCCc5ccccc5)[C@@H](C2)N(CC2CC2)CC[C@]314` is 19.3 nM; for `Oc1ccc2c3c1O[C@H]1c4ncc(-c5ccccn5)cc4C[C@@]4(OCCCc5ccccc5)[C@@H](C2)N(CC2CC2)CC[C@]314` it is 6.52 nM; for `Oc1ccc2c3c1O[C@H]1c4ncc(-c5cccnc5)cc4C[C@@]4(OCCCc5ccccc5)[C@@H](C2)N(CC2CC2)CC[C@]314` it is 30.6 nM.

Another series addresses T3, Kappa-type opioid receptor (Homo sapiens, UniProt P41145). In words: Displacement of [3H]-diprenorphine from human kappa opioid receptor expressed in CHO cell membranes incubated for 1 hr by competition radioligand binding assay.
Conditions: not given
The compound `Cc1cccc(-c2cnc3c(c2)C[C@@]2(OCCCc4ccccc4)[C@H]4Cc5ccc(O)c6c5[C@@]2(CCN4CC2CC2)[C@H]3O6)c1` showed a Ki of 17.6 nM.
Turning to `Oc1ccc2c3c1O[C@H]1c4ncc(-c5cn[nH]c5)cc4C[C@@]4(OCCCc5ccccc5)[C@@H](C2)N(CC2CC2)CC[C@]314`, the inhibition constant Ki stood at 29.8 nM.
The same measure, in the same setting: the same measure for `Oc1ccc2c3c1O[C@H]1c4ncc(-c5ccncc5)cc4C[C@@]4(OCCCc5ccccc5)[C@@H](C2)N(CC2CC2)CC[C@]314`: 15.8 nM; for `Oc1ccc2c3c1O[C@H]1c4ncc(-c5ccccc5)cc4C[C@@]4(OCCCc5ccccc5)[C@@H](C2)N(CC2CC2)CC[C@]314`: 132 nM.
Same read-out and setting: the same measure for `Oc1ccc2c3c1O[C@H]1c4ncc(-c5ccccn5)cc4C[C@@]4(OCCCc5ccccc5)[C@@H](C2)N(CC2CC2)CC[C@]314`: 19.2 nM.
On the same count and under the same terms, the figure for `Oc1ccc2c3c1O[C@H]1c4ncc(-c5cccnc5)cc4C[C@@]4(OCCCc5ccccc5)[C@@H](C2)N(CC2CC2)CC[C@]314` is 27.8 nM.

Another series has as its target T3, Kappa-type opioid receptor. The experiment in a line: Agonist activity at human kappa opioid receptor expressed in CHO cell membranes incubated for 1 hr by [35S]GTPgammaS binding assay. The conditions noted are these: cho. The class given is functional.
On to `Cc1cccc(-c2cnc3c(c2)C[C@@]2(OCCCc4ccccc4)[C@H]4Cc5ccc(O)c6c5[C@@]2(CCN4CC2CC2)[C@H]3O6)c1`, for which the EC50 result is “Not Active”.
On the same count and under the same terms, the same measure for `Oc1ccc2c3c1O[C@H]1c4ncc(-c5cn[nH]c5)cc4C[C@@]4(OCCCc5ccccc5)[C@@H](C2)N(CC2CC2)CC[C@]314`: “Not Active”.
Same read-out and setting: the same measure for `Oc1ccc2c3c1O[C@H]1c4ncc(-c5ccncc5)cc4C[C@@]4(OCCCc5ccccc5)[C@@H](C2)N(CC2CC2)CC[C@]314`: “Not Active”.
The same measure, in the same setting: the entry for `Oc1ccc2c3c1O[C@H]1c4ncc(-c5cccnc5)cc4C[C@@]4(OCCCc5ccccc5)[C@@H](C2)N(CC2CC2)CC[C@]314` is “Not Active”.

Still in this series, the particulars now being: read-out: EC50.
For the compound `Oc1ccc2c3c1O[C@H]1c4ncc(-c5ccccc5)cc4C[C@@]4(OCCCc5ccccc5)[C@@H](C2)N(CC2CC2)CC[C@]314`, the EC50 was > 3330 nM.

For a further series, the target named is T2, Delta-type opioid receptor. The experiment in a line: Antagonist activity at human delta opioid receptor expressed in CHO cell membranes assessed as reduction in SNC80-induced [35S]GTPgammaS binding preincubated for 5 mins followed by SNC80 addition and measured after 1 hr. In kind it is functional.
Conditions: not given
For the compound `Cc1cccc(-c2cnc3c(c2)C[C@@]2(OCCCc4ccccc4)[C@H]4Cc5ccc(O)c6c5[C@@]2(CCN4CC2CC2)[C@H]3O6)c1`, the IC50 was < 0.169 nM.
As for `Oc1ccc2c3c1O[C@H]1c4ncc(-c5cn[nH]c5)cc4C[C@@]4(OCCCc5ccccc5)[C@@H](C2)N(CC2CC2)CC[C@]314`, the concentration for half-maximal inhibition (IC50) is 0.62 nM.
Same read-out and setting: the figure for `Oc1ccc2c3c1O[C@H]1c4ncc(-c5ccncc5)cc4C[C@@]4(OCCCc5ccccc5)[C@@H](C2)N(CC2CC2)CC[C@]314` is 18.3 nM.
The same measure, in the same setting: the same measure for `Oc1ccc2c3c1O[C@H]1c4ncc(-c5ccccc5)cc4C[C@@]4(OCCCc5ccccc5)[C@@H](C2)N(CC2CC2)CC[C@]314`: 0.93 nM; for `Oc1ccc2c3c1O[C@H]1c4ncc(-c5ccccn5)cc4C[C@@]4(OCCCc5ccccc5)[C@@H](C2)N(CC2CC2)CC[C@]314`: 0.51 nM.
Take `Oc1ccc2c3c1O[C@H]1c4ncc(-c5cccnc5)cc4C[C@@]4(OCCCc5ccccc5)[C@@H](C2)N(CC2CC2)CC[C@]314`: the IC50 was determined as 0.67 nM.

In a further series the target is T3, Kappa-type opioid receptor. In words: Agonist activity at human kappa opioid receptor expressed in CHO cell membranes assessed as stimulation of [35S]GTPgammaS binding incubated for 1 hr relative to […]. The class given is functional.
Conditions: not given
In the case of `Cc1cccc(-c2cnc3c(c2)C[C@@]2(OCCCc4ccccc4)[C@H]4Cc5ccc(O)c6c5[C@@]2(CCN4CC2CC2)[C@H]3O6)c1`, the Emax entry was “inactive”.
Consider `Oc1ccc2c3c1O[C@H]1c4ncc(-c5cn[nH]c5)cc4C[C@@]4(OCCCc5ccccc5)[C@@H](C2)N(CC2CC2)CC[C@]314`, for which the Emax entry was “inactive”.
With `Oc1ccc2c3c1O[C@H]1c4ncc(-c5ccncc5)cc4C[C@@]4(OCCCc5ccccc5)[C@@H](C2)N(CC2CC2)CC[C@]314`, the Emax result is “inactive”.
On the same count and under the same terms, the entry for `Oc1ccc2c3c1O[C@H]1c4ncc(-c5cccnc5)cc4C[C@@]4(OCCCc5ccccc5)[C@@H](C2)N(CC2CC2)CC[C@]314` is “inactive”.

Another series has as its target T1, Mu-type opioid receptor. The experiment in a line: biochemical. The class given is cell-based, CHO.
Conditions: not given
This is another data set of the same source.
Take `Cc1cccc(-c2cnc3c(c2)C[C@@]2(OCCCc4ccccc4)[C@H]4Cc5ccc(O)c6c5[C@@]2(CCN4CC2CC2)[C@H]3O6)c1`: the affinity corresponds to a Ki of 24.4 nM.
The same measure, in the same setting: the same measure for `Oc1ccc2c3c1O[C@H]1c4ncc(-c5cn[nH]c5)cc4C[C@@]4(OCCCc5ccccc5)[C@@H](C2)N(CC2CC2)CC[C@]314`: 121 nM; for `Oc1ccc2c3c1O[C@H]1c4ncc(-c5ccncc5)cc4C[C@@]4(OCCCc5ccccc5)[C@@H](C2)N(CC2CC2)CC[C@]314`: 47.1 nM; for `Oc1ccc2c3c1O[C@H]1c4ncc(-c5ccccc5)cc4C[C@@]4(OCCCc5ccccc5)[C@@H](C2)N(CC2CC2)CC[C@]314`: 23.1 nM.
On the same count and under the same terms, the figure for `Oc1ccc2c3c1O[C@H]1c4ncc(-c5ccccn5)cc4C[C@@]4(OCCCc5ccccc5)[C@@H](C2)N(CC2CC2)CC[C@]314` is 105 nM.
Compound `Oc1ccc2c3c1O[C@H]1c4ncc(-c5cccnc5)cc4C[C@@]4(OCCCc5ccccc5)[C@@H](C2)N(CC2CC2)CC[C@]314` gave a Ki of 82.7 nM.
